{"source": "patent US6458838B1", "about": "“Adrenoleukodystrophy treatments” (Johns Hopkins University, priority 1999, dated 2002)", "key": {"[1]": {"test_system": "X-ALD human lymphoblastoid cells", "assay": "C24:0 β-oxidation activity ([1-14C]-C24:0 to water-soluble products)", "assay_type": "cell-based", "details": "5 mM 4PBA for 6 days", "experimental": "(§1) Human Tibroblast C24:0 β-oxidation increased from 25% to 48% of normal; human lymphobfastoid cells, from 18% to 53% of normal; and mouse fibroblasts, from 15% to 29% of normal. […] There are several possible mechanisms that could account for the action of 4-PBA in X-ALD.\n(§2) Cell culture and 4-PBA treatment. Cell lines derived from X-ALD patients and X-ALD mice were grown in MEM (fibroblasts) or RPMI (ymphoblastoid cells) supplemented with fetal calf serum (10%), penicillin (100 U/ml), streptomycin (100 U/mi) and glutamine (2 mM). […] Cells in the second flask were grown without drug for the same length of time and served as controls. The media were changed every 3-4 days.\n(§3) Biochemical measurements. […] For VLCFA measurements, total lipids were extracted, converted to methyl esters, purified by TLC and subjected to capillary GC analysis as described. Duplicate assays were set up independently and were assayed on different days. C24:0 β-oxidation activity of human and mouse fibroblasts and human lymphoblastoid cells was determined by measuring their capacity to degrade [1-^14C]-C24:0 fatty acid (American Radiolabeled Chemicals, St Louis, Mo.) to water-soluble products as described. Phytanic acid oxidation was measured as described. Cells were incubated with [2,3-^3H]-phytanic acid for 24 hours, and the release of ^3H-H2O to the aqueous medium was determined (activity in pmol/hr per mg protein)."}, "[2]": {"test_system": "X-ALD human primary fibroblasts", "assay": "C24:0 β-oxidation activity ([1-14C]-C24:0 to water-soluble products)", "assay_type": "cell-based", "experimental": "as §1, §2, §3"}, "[3]": {"test_system": "X-ALD mouse primary fibroblasts", "assay": "C24:0 β-oxidation activity ([1-14C]-C24:0 to water-soluble products)", "assay_type": "cell-based", "details": "5 mM 4PBA for 6 days", "experimental": "as §1, §2, §3"}, "[4]": {"test_system": "Pex11α", "assay": "Semi-quantitative RT-PCR in primary fibroblasts", "assay_type": "cell-based", "experimental": "Semi-quantitative RT-PCR analysis. Total RNA from tissue culture cells (10^6-10^7 cells/sample) was isolated using TRizol Reagent™ (Life Technologies), treated with DNase I (100-200 units in 40 mM HCI, 10 mM NaCl, 6 mM MgCl2, pH 7.3), incubated at 37° C. for 30 min, extracted with phenol/chloroform, and precipitated with isopropanol. cDNA was generated using MMLV reverse transcriptase (RT) (Life Technologies). PCR was done in the linear range of amplification (determined for each primerpair-cDNA combination). For each cDNA sample, a ‘cocktail’ was prepared, containing PCR buffer (Promega), 200 µM of each DNTP, 1.5 mM MgCl2, 250 ng cDNA, 0.25 U of Taq polymerase (Promega) and […]. The ‘cocktail’ was divided into separate tubes containing cDNA specific primers.\nPrimers. The PCR primers used are listed below. In the parentheses, h indicates human and m, mouse; this is followed by the gene name, product size and annealing temperature. For primer sequences, F is forward and R is reverse. […]"}, "[5]": {"test_system": "human primary fibroblasts", "assay": "Phytanic acid oxidation ([2,3-3H]-phytanic acid, release of 3H-H2O)", "assay_type": "cell-based", "details": "5 mM 4-PBA for 10 days", "text": "The increase in phytanic acid oxidation activity was significant (P<0.001 5(n=4) for X-ALD primary fibroblasts and P<0.013 (n=3) for normal primary fibroblasts). […] The relative amount of SCP2 protein was compared to the housekeeping gene β-actin.\nPhytanic acid oxidation occurs exclusively in the peroxisomal matrix and can therefore serve as a marker for peroxisomal function. […] SCP2 is a 15-kDa protein located exclusively in the peroxisomal matrix.\nas §3"}, "[6]": {"test_system": "patients with urea cycle disorders", "details": "used for many years; cited from earlier work"}}}
{"smiles": "O=C(O)CCCc1ccccc1", "note": "[4-PBA, 4-Phenyl butyrate]", "values": [{"measurement": "C24:0 β-oxidation, Increase (treated vs untreated)", "setting": "[1]", "result": 2.92, "unit": "fold"}, {"measurement": "increase in C24:0 β-oxidation", "setting": "[2]; 5 mM 4-PBA for 6 days, all X-ALD cell lines tested (human and mouse)", "result": "twofold to threefold increase"}, {"measurement": "C24:0 β-oxidation, Increase (treated vs untreated)", "setting": "[2]; 5 mM 4PBA for 6 days", "result": 1.95, "unit": "fold"}, {"measurement": "C24:0 β-oxidation, Increase (treated vs untreated)", "setting": "[3]", "result": 1.87, "unit": "fold"}, {"measurement": "Pex11α expression", "setting": "[4]; human fibroblasts, 5 mM 4-PBA, after 2 days", "result": "substantial increase"}, {"measurement": "Pex11α transcripts", "setting": "[4]; normal or X-ALD mouse fibroblasts, before or after 10 day exposure to 5 mM 4-PBA, data not shown", "result": "undetectable"}, {"measurement": "phytanic acid oxidation", "setting": "[5]; X-ALD human primary fibroblasts", "result": "twofold increase"}, {"measurement": "phytanic acid oxidation", "setting": "[5]; normal human primary fibroblasts", "result": "twofold increase"}, {"measurement": "side effects", "setting": "[6]", "result": "few, if any, side effects"}]}
